Source: patent US20210214399A1, “PH LOW INSERTION PEPTIDE AND COMPOSITION THEREOF” (priority 2017, published 2021)

How the values were obtained:
[1] = background art, pHLIP derivatives produced by sequence adjustment; cited from earlier work
[2] = tested on: Human colorectal cancer cell line SW480; conditions: for insertion into the surface of the cell (fluorescence on cell membrane): acid solution environment, PBS pH 6.3, alexa647 marked peptide; for insertion into the surface of the cell (fluorescence on cell membrane) / membrane insertion ability: 37° C. 1 hour; for membrane insertion ability: neutral solution environment, PBS pH 7.4, alexa647 marked peptide
Experimental: (1) The SW480 cells in logarithmic phase were collected, the culture solution was discarded, and the cells were washed twice with saline. […] The cells were transferred to a 10 ml test tube to centrifuge at 1000 rpm for 5 min, the supernatant was removed, and 1 ml of RPMI 1640 medium containing 10% fetal bovine serum was added to resuspend and mix the cells. After 10 μl of the cell suspension was added to a cell counting plate and counted, a certain amount of the cell suspension was added into the laser confocal cell culture dish, which was then adjusted to a cell system of 5* 10^5, 1 ml with complete medium, and put into a cell incubator and incubated overnight.
(2) The culture solution was prepared using 1 mol/L hydrochloric acid and a PBS buffer at pH 7.4. Hydrochloric acid was added dropwise to the PBS buffer, and finally the pH value of the buffer was titrated to 6.3.
(3) When the SW480 cells adhered after being cultured overnight, the supernatant of the medium was removed, and the cells were washed twice with a PBS buffer at pH 7.4.
(4) The PBS buffer in the cell culture dish was removed, 1 ml of the previously prepared mixed culture buffers of PBS at pH 6.3 and 7.4 and peptides were added to the two dishes, respectively, and 1 ml of the PBS medium at pH 7.4 without peptides was added to another control dish, and all of them were put in a 37° C. cell incubator to incubate for 1 hour.
(5) After incubation, the supernatant of the peptide-containing PBS culture solution was removed, and the peptide-containing PBS culture solution was washed three times with peptide-free PBS buffers with different pH values in each group, and then added with a PBS buffer at pH 7.4.
(6) The prepared cell culture dishes were placed under the laser confocal microscope (647 mm excitation wavelength) to observe the fluorescence expression on the surface of the cell membrane.

[3] = tested on: Mouse colon cancer cells CT26 tumors; conditions: for fluorescent marking of tumor tissues by 72 hours: 72 hours after intravenous injection; for marking of tumors (in vivo imaging): CT26 subcutaneous tumors, alexa647 marked peptide intravenously, imaging at 24, 48, 72 hours
Experimental: Mouse colon cancer cells CT26 were subcutaneously inoculated into Balb/c mice, and when the tumors grew to about 1 cm, saline (N.S.), alexa647 marked p-var7, alexa647 marked var7 were intravenously injected respectively with a dosage of 60 μM/100 pL N. S., in vivo imaging (excitation with Cy5.5 wavelength) was performed at 24, 48, 72 hours with supine position photography. The mice were sacrificed for tumor imaging.

4T1 cells tumors = conditions: fusion peptide 1 mg/kg intravenous every other day combined with CD20 monoclonal antibody GA101 30 mg/kg intraperitoneal twice a week; 4T1 tumors, Balb/c mice
Experimental: 4T1 cells were inoculated into mouse breasts, 2×10^6 cells/mouse, 50 μl volume.
(§1) When the tumor grows to 50mm^3, treatment was started.
(§2) The tumor volume and mouse body weight were measured every 3 days.
When the tumor volume in the control group reached 1000 mm^3, the administration was terminated.
When the tumor grows to 50mm^3, treatment was started. There are four groups: CD20-var3/GA101 group (10), GA101 group (5), CD20-var3 group (5), PBS group (10).
Administration method: CD20-var3, 1 mg/kg, intravenous injection, every other day; GA101, 30 mg/kg, intraperitoneal injection, twice a week. The tumor volume and mouse body weight were measured every 3 days.
as §1, §2

A549 tumors = conditions: Herceptin 10 mg/kg intraperitoneal combined with Her2 D4-pHLIP 40 μM/100 μl intravenous, nude mice
Experimental: A549 was inoculated into nude mice, when the tumor diameter grew to 1 cm, the tumor was aseptically peeled off, shredded, homogenized, and sieved to make a single cell suspension which was cultured and amplified in 1640 complete medium. The cells were injected into the subcutaneous abdomen of the nude mice with 1×10^6 cells/body, when the tumor diameter grew to 0.5 to 1 cm, the oversized and undersized tumors were removed, and mice with substantially the same tumor size were grouped. There were 4 groups: injection group of the Her2 D4-pHLIP alone, 10; injection group of the Her2 D4-pHLIP combined with the herceptin, 10; injection group of the Her2 D4-pHLIP combined with the IgG1, 10; injection group of normal saline N. S, 10. The tumor size was measured every 3 days.
Administration method: Her2 D4-pHLIP administration: each was injected intravenously with 40 μM/100 μl every time, starting from the day after the grouping was completed, once a day, and once every 2 days; antibody administration: Intraperitoneal injection, the dose was 10 mg/kg, the injection frequency was the same as the Her2 D4-pHLIP, and the injection time was 6 to 12 hours after the administration of the Her2 D4-pHLIP until the end.

ACDDQNPWRAYLDLLFPTDTLLLDLLW (listed as Homo sapiens) [var3]
tumor targeting [1]: improve its tumor targeting

ACEEQNPGGGSACEEQNPWARYLEWLFPTETLLLEL [p-var7]
insertion into the surface of the cell (fluorescence on cell membrane) [2]: could effectively insert into the surface of human colon cancer cell SW480
membrane insertion ability [2]: lost
selectivity in the acidic microenvironment ([2]; p-var7 compared with var7, pH 6.3 vs 7.4): more selective in the acidic microenvironment of tumor tissues
fluorescent marking of tumor tissues by 72 hours ([3]; CT26 tumors, Balb/c mice): still showed strong fluorescent marking
marking of tumors (in vivo imaging) ([3]; Balb/c mice): could mark tumors
marking ability, compared ([3]; p-var7 compared with var7, CT26 tumors, Balb/c mice): stronger marking ability
accumulation of fluorescence in the tumor sites, persistence ([3]; previous experiment results of in vivo imaging, same dose 40 μM/100 μl intravenously): basically degraded by the third day

ACEEQNPWARYLEWLFPTETLLLEL [var7, reference compound]
insertion into the surface of the cell (fluorescence on cell membrane) [2]: could effectively insert into the surface of human colon cancer cell SW480
membrane insertion ability [2]: retained the ability
fluorescence intensity as time went by ([3]; 24 to 72 hours, var7 compared with p-var7, CT26 tumors, Balb/c mice): decayed more significantly
fluorescent marking of tumor tissues by 72 hours ([3]; CT26 tumors, Balb/c mice): only a few markers were visible in the tumor tissues
marking of tumors (in vivo imaging) ([3]; Balb/c mice): could mark tumors
tumor targeting [1]: maintaining good targeting

NIYNCEPANP SEKN SP S TQYC Y SIQ GGG SA S EEQNPWARYLEWLFP TETLLLEL [CD20-var7]
tumor cell growth (4T1 cells tumors): can significantly inhibit tumor cells growth

NIYNCEPANP SEKN SP S TQYCYSIQGGGSACDDQNPWRAYLDLLFPTDTLLLD LLW [CD20-var3]
tumor cell growth (4T1 cells tumors): can significantly inhibit tumor cell growth

NIYNCEPANP SEKN SP S TQYCYSIQGGGSACEQNPIYWARYADWLF TTPLLLL DLALLVDADEG [CD20-WT]
tumor cell growth (4T1 cells tumors): can significantly inhibit tumor cell growth

trastuzumab [Herceptin]
tumor growth (A549 tumors): significantly inhibited tumor growth
